In patent US20240092758A1, “IMIDAZOLO INDAZOLE COMPOUNDS AS JAK INHIBITORS” (Theravance Biopharma R&D IP, LLC, priority 2021, published 2024):

Columns and labels:
JAK1 = JAK1 (Homo sapiens (Human), UniProt P23458); assay: Biochemical JAK kinase assay (LanthaScreen), JAK1; conditions: for Ki: read-out: JAK1 pKi (converted)
Outline: (§1)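 LanthaScreen format: phospho-STAT1 (pTyr701) detected with 2 nM Tb antibody after 10 mM EDTA quench. Kinase step used Km-level ATP and 200 nM STAT1 peptide, 1 h at ambient after 1 h pre-incubation. Inhibition fitted to IC50, reported as pKi.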

JAK2 = JAK2 (Homo sapiens (Human), UniProt O60674); assay: Biochemical JAK kinase assay (LanthaScreen), JAK2; conditions: for Ki: read-out: JAK2 pKi (converted)
JAK2, sequence (O60674 whole entry): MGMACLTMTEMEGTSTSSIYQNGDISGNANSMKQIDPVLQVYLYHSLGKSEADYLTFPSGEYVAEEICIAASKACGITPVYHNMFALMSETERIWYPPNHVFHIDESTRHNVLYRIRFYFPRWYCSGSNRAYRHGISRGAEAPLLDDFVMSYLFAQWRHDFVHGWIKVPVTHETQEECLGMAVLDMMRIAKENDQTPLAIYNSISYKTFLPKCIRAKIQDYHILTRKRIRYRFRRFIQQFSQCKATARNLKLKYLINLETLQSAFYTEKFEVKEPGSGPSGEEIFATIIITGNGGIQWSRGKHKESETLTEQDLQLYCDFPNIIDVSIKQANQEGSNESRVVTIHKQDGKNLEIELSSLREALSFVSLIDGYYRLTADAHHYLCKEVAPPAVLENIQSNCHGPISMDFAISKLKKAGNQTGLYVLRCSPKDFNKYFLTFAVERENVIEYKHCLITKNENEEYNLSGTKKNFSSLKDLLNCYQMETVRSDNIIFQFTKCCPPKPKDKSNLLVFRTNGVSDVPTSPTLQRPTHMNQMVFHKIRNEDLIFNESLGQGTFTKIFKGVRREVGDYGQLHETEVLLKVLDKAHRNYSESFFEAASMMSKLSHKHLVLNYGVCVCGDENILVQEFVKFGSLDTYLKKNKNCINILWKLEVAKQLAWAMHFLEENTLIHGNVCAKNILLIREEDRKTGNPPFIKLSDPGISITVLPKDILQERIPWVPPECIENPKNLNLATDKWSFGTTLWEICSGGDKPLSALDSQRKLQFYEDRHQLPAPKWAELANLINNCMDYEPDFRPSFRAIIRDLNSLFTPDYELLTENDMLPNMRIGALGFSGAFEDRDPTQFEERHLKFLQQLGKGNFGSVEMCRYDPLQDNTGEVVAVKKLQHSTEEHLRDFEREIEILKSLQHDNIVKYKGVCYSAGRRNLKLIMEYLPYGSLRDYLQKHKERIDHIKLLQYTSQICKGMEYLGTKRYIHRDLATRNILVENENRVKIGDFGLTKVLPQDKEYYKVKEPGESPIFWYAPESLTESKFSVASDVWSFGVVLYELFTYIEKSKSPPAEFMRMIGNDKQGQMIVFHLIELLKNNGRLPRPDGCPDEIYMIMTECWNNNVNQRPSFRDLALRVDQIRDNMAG
Outline: as §1

JAK3 = JAK3 (Homo sapiens (Human), UniProt P52333); assay: Biochemical JAK kinase assay (LanthaScreen), JAK3; conditions: read-out: JAK3 pKi (converted)
JAK3, sequence (P52333 whole entry): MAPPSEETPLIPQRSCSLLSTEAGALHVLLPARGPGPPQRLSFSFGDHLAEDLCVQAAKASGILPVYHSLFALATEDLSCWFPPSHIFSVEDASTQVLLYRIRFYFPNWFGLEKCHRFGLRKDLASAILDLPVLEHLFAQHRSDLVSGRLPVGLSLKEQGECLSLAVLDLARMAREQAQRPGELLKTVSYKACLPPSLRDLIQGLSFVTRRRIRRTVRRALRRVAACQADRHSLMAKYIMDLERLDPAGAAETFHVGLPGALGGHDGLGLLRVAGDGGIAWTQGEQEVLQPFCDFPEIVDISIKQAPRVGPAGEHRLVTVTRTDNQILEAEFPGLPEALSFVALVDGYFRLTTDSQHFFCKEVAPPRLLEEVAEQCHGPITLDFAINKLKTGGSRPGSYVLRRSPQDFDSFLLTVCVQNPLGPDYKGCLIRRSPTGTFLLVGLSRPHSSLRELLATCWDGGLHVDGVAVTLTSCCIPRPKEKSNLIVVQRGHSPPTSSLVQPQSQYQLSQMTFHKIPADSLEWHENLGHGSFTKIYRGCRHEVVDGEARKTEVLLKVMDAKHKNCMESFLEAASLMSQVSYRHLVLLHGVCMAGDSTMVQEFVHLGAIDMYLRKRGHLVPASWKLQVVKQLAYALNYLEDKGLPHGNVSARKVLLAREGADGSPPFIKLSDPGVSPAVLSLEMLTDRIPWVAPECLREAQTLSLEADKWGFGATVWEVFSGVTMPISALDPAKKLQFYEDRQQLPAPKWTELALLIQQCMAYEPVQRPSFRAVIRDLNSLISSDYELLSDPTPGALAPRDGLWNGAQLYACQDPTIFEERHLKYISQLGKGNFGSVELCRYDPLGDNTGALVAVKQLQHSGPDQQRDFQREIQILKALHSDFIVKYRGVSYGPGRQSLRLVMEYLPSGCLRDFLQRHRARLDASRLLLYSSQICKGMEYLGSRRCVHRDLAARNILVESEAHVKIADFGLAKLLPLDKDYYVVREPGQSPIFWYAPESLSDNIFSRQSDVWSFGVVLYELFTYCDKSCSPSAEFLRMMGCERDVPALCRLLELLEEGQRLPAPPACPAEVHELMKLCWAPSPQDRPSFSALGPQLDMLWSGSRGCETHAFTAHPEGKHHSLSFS
Method: A panel of four LanthaScreen JAK biochemical assays (JAK1, 2, 3 and Tyk2) were carried in a common kinase reaction buffer (50 mM HEPES, pH 7.5, 0.01% Brij-35, 10 mM MgCl2, and 1 mM EGTA). Recombinant GST-tagged JAK enzymes and a GFP-tagged STAT1 peptide substrate were obtained from Life Technologies.
Serially diluted compounds were pre-incubated with each of the four JAK enzymes and the substrate in white 384-well microplates (Corning) at ambient temperature for 1 h. ATP was subsequently added to initiate the kinase reactions in 10 μL total volume, with 1% DMSO. The final enzyme concentrations for JAK1, 2, 3 and Tyk2 are 4.2 nM, 0.1 nM, 1 nM, and 0.25 nM respectively; the corresponding Km ATP concentrations used are 25 μM, 3 μM, 1.6 μM, and 10 μM; while the substrate concentration is 200 nM for all four assays. Kinase reactions were allowed to proceed for 1 hour at ambient temperature before a 10 μL preparation of EDTA (10 mM final concentration) and Tb-anti-pSTAT1 (pTyr701) antibody (Life Technologies, 2 nM final concentration) in TR-FRET dilution buffer (Life Technologies) was added. The plates were allowed to incubate at ambient temperature for 1 h before being read on the EnVision reader (Perkin Elmer). Emission ratio signals (520 nm/495 nm) were recorded and utilized to calculate the percent inhibition values based on DMSO and background controls.
For dose-response analysis, percent inhibition data were plotted vs. compound concentrations, and IC50 values were determined from a 4-parameter robust fit model with the Prism software (GraphPad Software). Results were expressed as pIC50 (negative logarithm of IC50) and subsequently converted to pKi (negative logarithm of dissociation constant, Ki) using the Cheng-Prusoff equation.
Test compounds having a lower Ki value or higher pKi value in the four JAK assays show greater inhibition of JAK activity.

TYK2 = TYK2 (Homo sapiens (Human), UniProt P29597); assay: Biochemical JAK kinase assay (LanthaScreen), Tyk2; conditions: read-out: Tyk2 pKi (converted)
TYK2, sequence (P29597 whole entry): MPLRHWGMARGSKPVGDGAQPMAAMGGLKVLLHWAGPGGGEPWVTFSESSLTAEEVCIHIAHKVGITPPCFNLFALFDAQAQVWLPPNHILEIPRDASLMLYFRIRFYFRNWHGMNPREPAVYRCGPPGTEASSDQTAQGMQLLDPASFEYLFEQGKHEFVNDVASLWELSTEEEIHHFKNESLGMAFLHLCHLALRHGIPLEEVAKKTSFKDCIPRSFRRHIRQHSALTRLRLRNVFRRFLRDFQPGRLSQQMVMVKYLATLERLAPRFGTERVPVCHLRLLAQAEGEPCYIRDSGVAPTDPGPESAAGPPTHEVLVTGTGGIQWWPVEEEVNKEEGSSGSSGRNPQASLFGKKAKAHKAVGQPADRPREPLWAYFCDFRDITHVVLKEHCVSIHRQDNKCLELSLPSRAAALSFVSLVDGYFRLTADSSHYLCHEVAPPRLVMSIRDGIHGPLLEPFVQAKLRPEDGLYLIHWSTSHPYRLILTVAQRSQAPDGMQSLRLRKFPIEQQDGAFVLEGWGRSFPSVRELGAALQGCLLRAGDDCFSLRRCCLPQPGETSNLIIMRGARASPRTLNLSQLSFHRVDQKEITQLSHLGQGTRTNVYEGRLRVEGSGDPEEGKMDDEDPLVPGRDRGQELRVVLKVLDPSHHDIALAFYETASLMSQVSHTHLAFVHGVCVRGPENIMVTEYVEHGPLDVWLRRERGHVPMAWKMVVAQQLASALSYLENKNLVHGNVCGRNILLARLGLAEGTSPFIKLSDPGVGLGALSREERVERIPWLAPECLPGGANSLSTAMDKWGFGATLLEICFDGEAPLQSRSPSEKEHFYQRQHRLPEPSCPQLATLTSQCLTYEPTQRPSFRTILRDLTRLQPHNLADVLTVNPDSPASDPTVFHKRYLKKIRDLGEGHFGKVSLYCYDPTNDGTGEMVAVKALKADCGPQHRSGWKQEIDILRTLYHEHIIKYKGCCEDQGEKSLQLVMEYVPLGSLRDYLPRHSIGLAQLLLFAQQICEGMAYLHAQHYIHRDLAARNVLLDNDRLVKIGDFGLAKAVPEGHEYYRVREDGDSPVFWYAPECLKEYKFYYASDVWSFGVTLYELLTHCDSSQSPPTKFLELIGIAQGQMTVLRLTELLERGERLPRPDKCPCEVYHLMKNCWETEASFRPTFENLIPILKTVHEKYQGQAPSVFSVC
Outline: as §1

[1] = tested on: IL-13 induced STAT6 phosphorylation in BEAS-2B human lung epithelial cells; assay: Cellular JAKI potency assay (BEAS-2B); format: cell-based; conditions: BEAS-2B cells; for IC50: Homo sapiens, BEAS-2B, read-out: BEAS2B pIC50 (converted)
Outline: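 BEAS-2B cells were preincubated with compound (0.1% DMSO) in HBSS/HEPES/BSA for 1 h at 37 °C, then stimulated with IL-13 (80 ng/mL before addition) for 30 min. After lysis, pSTAT6 (Tyr641) was quantified by AlphaLISA SureFire; IC50 from a 4-parameter fit of percent inhibition, reported as pIC50.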

[2] = Pharmacokinetics in plasma and lung in mouse after oral aspiration administration; format: in vivo; conditions: male CD1 mice; for Lung Tissue AUC(0-24) / AUC(0-t): 0.2 mg/mL, two 25 μL increments; for Lung Tissue:Plasma AUC ratio: lung AUC to plasma AUC; for AUC(0-t): mouse, inhaled or intranasal, 0.01 mg/mouse, plasma, read-out: Plasma AUC(0-24)
Method: Plasma and lung concentrations of test compounds were quantified and pharmacokinetic parameters were calculated in the following manner. Male CD1 mice from Charles River Laboratories were used in the pharmacokinetic studies. Test compounds were individually formulated in 20% propylene glycol in pH 4 citrate buffer at a concentration of 0.2 mg/mL. Test compounds were administered in two, 25 μL increments introduced into the trachea of each mouse by oral aspiration using a calibrated pipette once the animal was anesthetized using isoflurane. Blood samples were collected as terminal collections via cardiac puncture at 0.167, 1, 4, 8, and 24 hr post-dosing. Following […] with CO2, a direct cardiac puncture was performed while avoiding puncturing the lung and blood was immediately transferred into K2EDTA tubes and placed on wet ice. Blood samples were centrifuged (Eppendorf centrifuge, 5804R) for 4 minutes at approximately 12,000 rpm at 4° C. to collect plasma. Intact lungs were also excised from these mice using the same timepoints (0.167, 1, 4, 8, and 24 hr). Lungs were washed with sterile water to remove any blood residue and were patted dry, weighed, and homogenized in 0.1% formic acid in water at a dilution of 1:3 (lung:water, weight/volume). Plasma and lung concentrations of test compounds were determined by LC-MS/MS analysis against analytical standards constructed into a standard curve in the test matrix. The pharmacokinetic parameters of test compounds were determined by non-compartmental analysis. For concentrations below the limit of quantification, zero was used for mean calculations. Mean values were not reported if more than 50% of the samples were below the limit of quantification at a timepoint, or if more than 50% of a calculated pharmacokinetic parameter was not reportable. The area under the concentration-time curve extrapolated to infinity (AUC(0-inf)) was calculated as follows: AUC(0-inf)=AUC(0-t)+Clast/k, where AUC(0-t) is the area under the concentration-time curve from the time of dosing to the last measurable concentration calculated by the linear trapezoidal rule, Clast is the last measurable concentration, and k is the first order rate constant associated with the terminal elimination phase, estimated by linear regression of time versus log concentration. The lung-to-plasma AUC ratio was determined as the ratio of the lung AUC(0-inf) in μg*hr/g to the plasma AUC(0-inf) in μg*hr/mL.

JAK1, sequence (P23458 whole entry): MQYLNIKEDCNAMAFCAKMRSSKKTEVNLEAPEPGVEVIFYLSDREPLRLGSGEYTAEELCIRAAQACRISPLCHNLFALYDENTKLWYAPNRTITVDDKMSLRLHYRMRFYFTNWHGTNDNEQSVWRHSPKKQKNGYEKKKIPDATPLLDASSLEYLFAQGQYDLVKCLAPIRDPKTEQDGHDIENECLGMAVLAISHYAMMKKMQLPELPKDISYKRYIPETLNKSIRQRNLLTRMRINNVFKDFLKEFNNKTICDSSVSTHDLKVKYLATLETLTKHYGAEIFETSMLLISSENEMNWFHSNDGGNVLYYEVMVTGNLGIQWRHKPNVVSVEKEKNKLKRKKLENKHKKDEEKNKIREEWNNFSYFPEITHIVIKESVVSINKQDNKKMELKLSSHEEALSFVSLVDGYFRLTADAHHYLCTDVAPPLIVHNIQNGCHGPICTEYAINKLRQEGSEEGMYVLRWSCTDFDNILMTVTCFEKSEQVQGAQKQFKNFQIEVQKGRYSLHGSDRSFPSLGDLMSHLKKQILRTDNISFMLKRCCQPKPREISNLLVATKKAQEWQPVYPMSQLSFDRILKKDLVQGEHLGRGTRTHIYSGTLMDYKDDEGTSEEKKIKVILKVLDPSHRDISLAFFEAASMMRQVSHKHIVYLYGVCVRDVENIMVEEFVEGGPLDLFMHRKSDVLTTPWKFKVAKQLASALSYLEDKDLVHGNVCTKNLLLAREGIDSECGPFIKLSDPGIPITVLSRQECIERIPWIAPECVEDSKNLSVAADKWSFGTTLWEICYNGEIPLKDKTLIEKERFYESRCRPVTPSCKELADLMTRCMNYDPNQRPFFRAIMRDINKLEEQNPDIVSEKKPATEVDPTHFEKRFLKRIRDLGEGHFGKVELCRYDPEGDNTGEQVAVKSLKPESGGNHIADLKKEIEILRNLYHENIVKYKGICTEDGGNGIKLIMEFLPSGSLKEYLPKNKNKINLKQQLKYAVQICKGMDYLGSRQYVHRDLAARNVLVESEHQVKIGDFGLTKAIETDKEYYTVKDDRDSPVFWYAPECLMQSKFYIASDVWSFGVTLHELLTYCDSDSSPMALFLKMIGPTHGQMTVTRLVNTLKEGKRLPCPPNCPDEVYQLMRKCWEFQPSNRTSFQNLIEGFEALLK

Compound	Ki (JAK1) [nM]	Ki (JAK2) [nM]	Ki (JAK3) [nM]	Ki (TYK2) [nM]	IC50 [1] [nM]	Lung Tissue AUC(0-24) [2]	Lung Tissue:Plasma AUC ratio [2]	AUC(0-t) [2] [ng·h/mL]	JAK1 pKi (JAK1)	JAK2 pKi (JAK2)	BEAS2B pIC50 [1]
CCc1cc(O)ccc1-c1ccc2c(-c3nc(C4=CCCNC4)c[nH]3)n[nH]c2c1 [Compound 4, 3-ethyl-4-(3-(4-(1,2,5,6-tetrahydropyridin-3-yl)-1H-imidazol-2-yl)-1H-indazol-6-yl)phenol]	0.1 to 1	0.1 to 1	0.1 to 1	1 to 10	3.16 to 10	B (B denotes a value between 50 and 100)	C (C denotes a ratio between 100 and 200)	500 to 1000	–	–	–
CCc1cc(O)ccc1-c1ccc2c(-c3nc(C4=CCNC4)c[nH]3)n[nH]c2c1 [Compound 5, 4-(3-(4-(2,5-dihydro-1H-pyrrol-3-yl)-1H-imidazol-2-yl)-1H-indazol-6-yl)-3-ethylphenol]	–	0.1 to 1	0.1 to 1	0.1 to 1	3.16 to 10	C (C denotes a value between 9 and 50)	D (D denotes a ratio between 50 and 100)	< 500	A (A represents a pKi value ≥10 (Ki≤0.1 nM))	–	–
CCc1cc(O)ccc1-c1ccc2c(-c3nc(C4=CCCNC4)c[nH]3)n[nH]c2c1F [Compound 6, 3-ethyl-4-(7-fluoro-3-(4-(1,2,5,6-tetrahydropyridin-3-yl)-1H-imidazol-2-yl)-1H-indazol-6-yl)phenol]	0.1 to 1	0.1 to 1	1 to 10	1 to 10	3.16 to 10	B (B denotes a value between 50 and 100)	D (D denotes a ratio between 50 and 100)	500 to 1000	–	–	–
CCc1cc(O)ccc1-c1ccc2c(-c3nc(C4=CCN(CCCO)CC4)c[nH]3)n[nH]c2c1F [Compound 14, 3-ethyl-4-(7-fluoro-3-(4-(1-(3-hydroxypropyl)-1,2,3,6-tetrahydropyridin-4-yl)-1H-imidazol-2-yl)-1H-indazol-6-yl)phenol]	0.1 to 1	–	0.1 to 1	1 to 10	10 to 31.6	C (C denotes a value between 9 and 50)	C (C denotes a ratio between 100 and 200)	< 500	–	–	–
CCc1cc(O)ccc1-c1ccc2c(-c3nc(C4=CCN(C5CCCN(C)C5)C4)c[nH]3)n[nH]c2c1F (stereo not drawn) [Example 223]	0.1 to 1	–	0.1 to 1	1 to 10	10 to 31.6	–	–	–	–	A (A represents a pKi value ≥10 (Ki≤0.1 nM))	–
CCc1cc(O)ccc1-c1ccc2c(-c3nc(C4=C(C)CNCC4)c[nH]3)n[nH]c2c1 [Example 224]	0.1 to 1	0.1 to 1	0.1 to 1	1 to 10	3.16 to 10	–	–	–	–	–	–
CCc1cc(O)ccc1-c1ccc2c(-c3nc(C4=CC5CCCC(C4)N5)c[nH]3)n[nH]c2c1 (stereo not drawn) [Example 225]	0.1 to 1	0.1 to 1	0.1 to 1	1 to 10	31.6 to 100	–	–	–	–	–	–
CCc1cc(O)ccc1-c1ccc2c(-c3nc(C4=CC[C@H](C)NC4)c[nH]3)n[nH]c2c1 [Example 230]	–	–	0.1 to 1	1 to 10	3.16 to 10	–	–	–	A (A represents a pKi value ≥10 (Ki≤0.1 nM))	A (A represents a pKi value ≥10 (Ki≤0.1 nM))	–
CCc1cc(O)ccc1-c1ccc2c(-c3nc(C4=CC[C@@H](C)NC4)c[nH]3)n[nH]c2c1 [Example 231]	0.1 to 1	–	0.1 to 1	1 to 10	3.16 to 10	–	–	–	–	A (A represents a pKi value ≥10 (Ki≤0.1 nM))	–
CCc1cc(O)ccc1-c1ccc2c(-c3nc(C4=CC(C)NC4)c[nH]3)n[nH]c2c1 (stereo not drawn) [Example 238]	0.1 to 1	0.1 to 1	0.1 to 1	10 to 100	3.16 to 10	–	–	–	–	–	–
CCc1cc(O)ccc1-c1ccc2c(-c3nc(C4=CC(C)NC4)c[nH]3)n[nH]c2c1F (stereo not drawn) [Example 244]	0.1 to 1	0.1 to 1	0.1 to 1	1 to 10	3.16 to 10	–	–	–	–	–	–
CCc1cc(O)ccc1-c1ccc2c(-c3nc(C4=C[C@@H](CO)NC4)c[nH]3)n[nH]c2c1F [Example 245]	0.1 to 1	0.1 to 1	0.1 to 1	10 to 100	31.6 to 100	–	–	–	–	–	–
CCc1cc(O)ccc1-c1ccc2c(-c3nc(C4=C(C)CNC4)c[nH]3)n[nH]c2c1F [Example 293]	0.1 to 1	0.1 to 1	0.1 to 1	0.1 to 1	3.16 to 10	–	–	–	–	–	–
CCc1cc(O)ccc1-c1ccc2c(-c3nc(C4=CCNCC4C)c[nH]3)n[nH]c2c1 (stereo not drawn) [Example 298]	0.1 to 1	0.1 to 1	0.1 to 1	0.1 to 1	10 to 31.6	–	–	–	–	–	–
CCc1cc(O)ccc1-c1ccc2c(-c3nc(C4=C[C@H](C)NCC4)c[nH]3)n[nH]c2c1F [Example 299]	0.1 to 1	0.1 to 1	0.1 to 1	0.1 to 1	10 to 31.6	–	–	–	–	–	–
CCOC(=O)C1CC=C(c2c[nH]c(-c3n[nH]c4c(F)c(-c5ccc(O)cc5CC)ccc34)n2)CN1 (stereo not drawn) [Example 300]	0.1 to 1	0.1 to 1	0.1 to 1	1 to 10	10 to 31.6	–	–	–	–	–	–
CCc1cc(O)ccc1-c1ccc2c(-c3nc(C4=CCN([C@H]5CC[C@@H](O)CC5)C4)c[nH]3)n[nH]c2c1F [Example 305]	0.1 to 1	–	0.1 to 1	0.1 to 1	–	–	–	–	–	A (A represents a pKi value ≥10 (Ki≤0.1 nM))	B (B represents a pIC50 value between 7.5 (included) and 8)
CCOC[C@H]1C=C(c2c[nH]c(-c3n[nH]c4c(F)c(-c5ccc(O)cc5CC)ccc34)n2)CN1 [Example 307]	0.1 to 1	0.1 to 1	0.1 to 1	1 to 10	10 to 31.6	–	–	–	–	–	–
CCc1cc(O)ccc1-c1ccc2c(-c3nc(C4=CC(CC)NC4)c[nH]3)n[nH]c2c1F (stereo not drawn) [Example 321]	0.1 to 1	0.1 to 1	0.1 to 1	1 to 10	10 to 31.6	–	–	–	–	–	–
CCc1cc(O)ccc1-c1ccc2c(-c3nc(C4=CCN(C[C@@H]5CCN5)CC4)c[nH]3)n[nH]c2c1F [Example 390]	0.1 to 1	–	0.1 to 1	1 to 10	100 to 316	–	–	–	–	A (A represents a pKi value ≥10 (Ki≤0.1 nM))	–
